Test results taken from PubChem BioAssay (NCI).
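A five-concentration, 48-hour dose response in 96-well plates underlies each endpoint, interpolated linearly between surrounding concentrations. The concentration for full growth arrest is given as TGI.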

What was measured:
Experiment in all cases: NCI-60 cell line screen, 48 h
OVCAR-3 ovarian = test system: OVCAR-3 ovarian
RXF-631 renal = test system: RXF-631 renal
NCI-H522 lung = test system: NCI-H522 lung
SNB-78 CNS = test system: SNB-78 CNS
CAKI-1 renal = test system: CAKI-1 renal
HCC-2998 colon = test system: HCC-2998 colon
SR leukemia = test system: SR leukemia
CCRF-CEM leukemia = test system: CCRF-CEM leukemia
HOP-92 NSCLC = test system: HOP-92 NSCLC
OVCAR-8 ovarian = test system: OVCAR-8 ovarian
A498 renal = test system: A498 renal
KM20L2 colon = test system: KM20L2 colon
UACC-62 melanoma = test system: UACC-62 melanoma
HT29 colon = test system: HT29 colon
KM12 colon = test system: KM12 colon
HCT-116 colon = test system: HCT-116 colon
MOLT-4 leukemia = test system: MOLT-4 leukemia
A549 NSCLC = test system: A549 NSCLC
NCI-H460 lung = test system: NCI-H460 lung
HOP-62 NSCLC = test system: HOP-62 NSCLC
LXFL 529 NSCLC = test system: LXFL 529 NSCLC
LOX IMVI melanoma = test system: LOX IMVI melanoma
M19-MEL melanoma = test system: M19-MEL melanoma
SF-268 CNS = test system: SF-268 CNS
SF-295 CNS = test system: SF-295 CNS
HOP-18 NSCLC = test system: HOP-18 NSCLC
DLD-1 colon = test system: DLD-1 colon
M14 melanoma = test system: M14 melanoma
UO-31 renal = test system: UO-31 renal
U251 CNS = test system: U251 CNS
SNB-75 CNS = test system: SNB-75 CNS
SNB-19 CNS = test system: SNB-19 CNS
DMS 114 small cell lung = test system: DMS 114 small cell lung
HL-60(TB) leukemia = test system: HL-60(TB) leukemia
NCI-H23 lung = test system: NCI-H23 lung
SW-620 colon = test system: SW-620 colon
IGROV1 ovarian = test system: IGROV1 ovarian
EKVX NSCLC = test system: EKVX NSCLC
OVCAR-5 ovarian = test system: OVCAR-5 ovarian
SK-MEL-2 melanoma = test system: SK-MEL-2 melanoma
SF-539 CNS = test system: SF-539 CNS
MALME-3M melanoma = test system: MALME-3M melanoma
SN12C renal = test system: SN12C renal
UACC-257 melanoma = test system: UACC-257 melanoma
K-562 leukemia = test system: K-562 leukemia
ACHN renal = test system: ACHN renal
HCT-15 colon = test system: HCT-15 colon
TK-10 renal = test system: TK-10 renal
OVCAR-4 ovarian = test system: OVCAR-4 ovarian
SK-MEL-28 melanoma = test system: SK-MEL-28 melanoma
786-0 renal = test system: 786-0 renal
SK-MEL-5 melanoma = test system: SK-MEL-5 melanoma
DMS 273 small cell lung = test system: DMS 273 small cell lung
RXF 393 renal = test system: RXF 393 renal
NCI-H226 lung = test system: NCI-H226 lung
SK-OV-3 ovarian = test system: SK-OV-3 ovarian
XF 498 CNS = test system: XF 498 CNS
COLO 205 colon = test system: COLO 205 colon
RPMI-8226 leukemia = test system: RPMI-8226 leukemia

Measured: TGI

CCOC(=O)C1=C(NC(C)(C)C)OC/C1=N\NC(=O)Cc1ccccc1
> 100 µM: OVCAR-3 ovarian | RXF-631 renal | NCI-H522 lung | SNB-78 CNS | CAKI-1 renal | HCC-2998 colon | SR leukemia | CCRF-CEM leukemia | HOP-92 NSCLC | OVCAR-8 ovarian | A498 renal | KM20L2 colon | UACC-62 melanoma | HT29 colon | KM12 colon | HCT-116 colon | MOLT-4 leukemia | A549 NSCLC | NCI-H460 lung | HOP-62 NSCLC | LXFL 529 NSCLC | LOX IMVI melanoma | M19-MEL melanoma | SF-268 CNS | SF-295 CNS | HOP-18 NSCLC | DLD-1 colon | M14 melanoma | UO-31 renal | U251 CNS | SNB-75 CNS | SNB-19 CNS | DMS 114 small cell lung | HL-60(TB) leukemia | NCI-H23 lung | SW-620 colon | IGROV1 ovarian | EKVX NSCLC | OVCAR-5 ovarian | SK-MEL-2 melanoma | SF-539 CNS | MALME-3M melanoma | SN12C renal | UACC-257 melanoma | K-562 leukemia | ACHN renal | HCT-15 colon | TK-10 renal | OVCAR-4 ovarian | SK-MEL-28 melanoma | 786-0 renal | SK-MEL-5 melanoma | DMS 273 small cell lung | RXF 393 renal | NCI-H226 lung | SK-OV-3 ovarian | XF 498 CNS | COLO 205 colon

Cc1cc(NS(=O)(=O)c2ccc(NC(=O)c3cccn4c(=O)c5ccccc5nc34)cc2)no1
> 100 µM: OVCAR-3 ovarian | RXF-631 renal | NCI-H522 lung | SNB-78 CNS | CAKI-1 renal | HCC-2998 colon | SR leukemia | CCRF-CEM leukemia | HOP-92 NSCLC | OVCAR-8 ovarian | A498 renal | KM20L2 colon | UACC-62 melanoma | HT29 colon | KM12 colon | HCT-116 colon | MOLT-4 leukemia | A549 NSCLC | RPMI-8226 leukemia | NCI-H460 lung | HOP-62 NSCLC | LXFL 529 NSCLC | LOX IMVI melanoma | M19-MEL melanoma | SF-268 CNS | SF-295 CNS | HOP-18 NSCLC | DLD-1 colon | M14 melanoma | UO-31 renal | U251 CNS | SNB-75 CNS | SNB-19 CNS | DMS 114 small cell lung | HL-60(TB) leukemia | NCI-H23 lung | SW-620 colon | IGROV1 ovarian | EKVX NSCLC | SF-539 CNS | MALME-3M melanoma | SN12C renal | UACC-257 melanoma | K-562 leukemia | ACHN renal | TK-10 renal | OVCAR-4 ovarian | SK-MEL-28 melanoma | 786-0 renal | SK-MEL-5 melanoma | DMS 273 small cell lung | RXF 393 renal | NCI-H226 lung | SK-OV-3 ovarian | XF 498 CNS | COLO 205 colon
